Article PMC6054118, “In vivo study and thermodynamic investigation of two lanthanum complexes, La(dpp)3 and La(XT), for the treatment of bone resorption disorders” (Chemical Science, 2015)
Values joined by “and” are separate entries in the source; they are usually repeats but may differ in a detail not shown here. Equal values may be shown once. Read-outs that look alike come from different tables or passages of the source. One block for each molecule: values may come before it.

Legend:
[1] = set-up: method as in Cawthray et al. 37; conditions: ITC, 37 °C, ref Cawthray et al. 37; cited from earlier work
[2] = isothermal titration calorimetry, binding to hydroxyapatite; conditions: ITC
Method: ITC experiments in the presence of ligand (Hdpp or XT) were carried out in either piperazine (100 mM) pH 5 or HEPES (100 mM) pH 7.4. Titrations were performed by injecting consecutive 10 μL aliquots of ligand (2.5–80 mM) or metal ion/ligand solution (2.5/10 mM for Hdpp and 81/90 mM for XT) into the ITC cell (volume = 1.4 mL) containing hydroxyapatite (0.1–1.5 mM) suspension. Hydroxylapatite suspensions were prepared by adding the required amount of hydroxyapatite to the appropriately buffered solution followed by sonication for 5 minutes. The ITC cell was stirred continuously during the titration. Control experiments (heats of dilution) were performed by titration of ligand or metal ion/ligand solution into buffer containing no hydroxyapatite. Each ITC experiment was performed in triplicate (at least). The error associated with diffusion from the syringe during baseline equilibration, the first injection was only 5 μL, and the associated small heat was not included in the data analysis.

[3] = bone (femur) distribution of lanthanum after multiple doses; type: in vivo, SD rats; conditions: 1 mg kg^–1 per day for 5 days, ANOVA p 0.006, 0.017, 0.004 (hip, mid, knee)
Method: (§1) Lanthanide concentration for both in vivo and in vitro studies were determined by ICP-MS analysis by the method reported previously.[30] In brief, samples were dried (vacuum centrifugation) and dissolved in conc. nitric acid (Optima) and slowly heated to 105 °C over 1 h and maintained at 105 °C for 24 h. Hydrogen peroxide (approximately 2 mL) was added and samples heated at 140 °C for 24 h. Samples were evaporated to dryness at 150 °C before redissolving in 3 mL of 10% nitric acid (with 10 ppm Rh) prior to analysis by ICP-MS.
(§2) Solutions of La(dpp)3 and La(XT) (1 mg mL^–1) were prepared in 10% DMSO and stored at 4 °C. Animals were administered with a dose of 1 mg kg^–1 once daily for 5 consecutive days by intravenous injection via jugular vein port. The animals were sacrificed on the day of the 5th dose and the spleen liver, kidney lungs, heart, brain and bones were collected. Blood samples (0.5 mL) were withdrawn at pre-dose and post-dose. The blood was centrifuged for 10 min at […] at room temperature to obtain the plasma. For organ homogenization, 1 g organ was added to 2 mL normal saline. Bones were cleaned manually of all soft flesh and sectioned into knee, middle, and hip parts using a ceramic blade, and lyophilized prior to normal acid digestion.

[4] = tissue and plasma distribution of lanthanum after multiple intravenous doses (ICP-MS); type: in vivo, SD rats; conditions: for plasma levels after 5 days of treatment / La^3+ concentration in brain / La^3+ concentration in heart / La^3+ concentration in kidney / La^3+ concentration in spleen: IV 1 mg kg^–1 per day for 5 days; for plasma levels after 5 days of treatment: mean ± SD; for La^3+ concentration in brain / La^3+ concentration in heart / La^3+ concentration in kidney / La^3+ concentration in spleen: n = 6, mean ± SD; for plasma concentration, t=end, mean / plasma concentration, t=end, single animals: IV 1mg/kg/day, end of trial; for plasma concentration, t=end, mean: n=6, mean; for plasma concentration, t=end, single animals: value of each animal, 1 mg/kg/day
Method: as §1, §2

[5] = set-up: method as in PMID 23299719, PMID 11442371; conditions: cited from earlier work; for pM (= –log[La^3+]): calculated at pH 7.4, 100 μM ligand, 10 μM metal
[6] = hydroxyapatite binding study (batch, La^3+ depletion in supernatant by ICP-MS); conditions: pH 7.4, 37 °C, excess HAP
Method: as §1
All time points were run in triplicate. Samples containing 10 mg of hydroxyapatite (Sigma-Aldrich) were initially incubated and agitated (37 °C, 220 rpm) with 0.9 mL HEPES buffer (100 mM, pH 7.4) in 1.5 mL Eppendorfs for 24 hours. Stock solutions (1.0 mM) of La(dpp)3 and La(XT) were prepared from the premade complexes dissolved in HEPES buffer. At the outset of the experiment, 100 μL of either stock solution was added to a sample and incubated and agitated for a set time. When the time point was reached, the supernatant was carefully removed, taking care not to disturb the residual HAP, and filtered through a 22 micron frit. […] Samples containing La(dpp)3 were also analysed by UV-Vis spectroscopy to determine Hdpp concentration. […]

[7] = tissue distribution of lanthanum after single intravenous dose (ICP-MS); type: in vivo, SD rats; conditions: single IV dose 1 mg kg^–1, last sampling point 144 h
Method: as §1
(§3) Solutions of La(dpp)3 were prepared in 10% DMSO and the stability of the complex over time (7 days) monitored by spectrophotometric methods. The solution of La(dpp)3 was administered to the animals through cannulae implanted in their jugular veins (n = 6). The animals received a dose of 1 mg kg^–1 at time 0 h and blood samples (0.25 mL were withdrawn at pre-dose, 5, 10, 15, 30 min and 1, 2, 3, 4, 6, 10, 24, 48, 72, 96 and 144 h post-dose). The animals were sacrificed following the last time point and the spleen, liver, kidney, lungs, heart and brain were collected. Lanthanide concentrations were determined by ICP-MS analysis following acid digestion of the samples. The calibration curves were linear in the range of 0.1–100 ng mL^–1 and 1–50 ng mL^–1 in the organs and plasma; respectively. The plasma pharmacokinetic parameters were derived by non-compartmental analysis of plasma concentration-time profiles using Phoenix software (Ver. 1.3).

MG-63 cells = system: MG-63 cells; set-up: method as in PMID 17992287, PMID 23299719, PMID 11442371; conditions: earlier work of the authors, read-out: EC50 (cellular toxicity); cited from earlier work
[8] = plasma clearance and pharmacokinetics after single intravenous dose; type: in vivo, SD rats
Method: as §1, §3

[9] = thermodynamic stability of the complex
[10] = La^3+ in plasma, La(dpp)3 1 mg kg^–1 IV, SD rats, non-compartmental, n = 6, mean

SMILES: [La+3] [Free La^3+]
apparent K a (pH 5) [1]: 2.4 (±0.2) × 10^6 M^–1

apparent K a (pH 5) ([2]; 37 °C, pH 5 (100 mM piperazine), one-site bimolecular–bimolecular model): 1.9 (±0.4) × 10^2 M^–1 | K (one-site fit) ([2]; 37 °C, pH 7.4 (100mM HEPES), 30.4mM H5XT into 1.1 mM HAP, Fig. S2): 6.61E3±1.33E3
SMILES: O=C(O)CN(CC(=O)O)CP(=O)(O)CN(CC(=O)O)CC(=O)O [H5XT, bis[[bis(carboxymethyl)amino]-methyl]phosphinate]

interaction of ligand alone with HAP ([2]; pH 5, absence of La^3+): do not see any evidence of interaction | binding of ligand alone to HAP ([2]; pH 7.4, absence of La^3+): no binding is observed
SMILES: Cc1c(O)c(=O)ccn1C [Hdpp, 3-hydroxy-1,2-dimethylpyridin-4(1H)-one]

bone distribution of lanthanum compared to La(dpp)3 [3]: slightly greater | plasma levels after 5 days of treatment [4]: 5999 ± 302 ng g^–1 | La^3+ concentration in brain [4]: 112 ± 84 ng g^–1 | La^3+ concentration in heart [4]: 768 ± 115 ng g^–1 | La^3+ concentration in kidney [4]: 1320 ± 157 ng g^–1 | La^3+ concentration in spleen [4]: 3854 ± 827 ng g^–1 | plasma concentration, t=end, mean [4]: 5998.7 ng/g weight | La^3+ bound to HAP ([6]; after 4 h): less than 20%
SMILES: O=C([O-])CN(CC(=O)[O-])CP(=O)(O)CN(CC(=O)[O-])CC(=O)[O-].[La+3] [La(XT)]
plasma concentration, t=end, single animals [4]: 5843.4 ng/g weight and 6432.4 ng/g weight and 5776.8 ng/g weight and 6337.3 ng/g weight and 5782.3 ng/g weight and 5819.9 ng/g weight | pM (= –log[La^3+]) [5]: 12.0 | log βML [5, 9]: 13.0(3)

plasma levels after 5 days of treatment [4]: 5517 ± 1188 ng g^–1 | La^3+ concentration in brain [4]: 101 ± 60 ng g^–1 | La^3+ concentration in heart [4]: 635 ± 178 ng g^–1 | La^3+ concentration in kidney [4]: 992 ± 321 ng g^–1 | La^3+ concentration in spleen [4]: 7817 ± 3211 ng g^–1 | plasma concentration, t=end, mean [4]: 5517.0 ng/g weight | La^3+ concentration in brain [7]: 15 ± 12 ng g^–1 | La^3+ concentration in heart [7]: 20 ± 7 ng g^–1 | La^3+ concentration in kidney [7]: 108 ± 95 ng g^–1 | La^3+ concentration in liver [7]: 741 ± 109 ng g^–1 | La^3+ concentration in spleen [7]: 1164 ± 350 ng g^–1 | La^3+ bound to HAP ([6]; first 15 minutes): greater than 80% | lanthanum in plasma beyond 10 h ([8]; 1 mg kg^–1 IV, beyond 10 h): not detected | time until plasma lanthanum is back to pre-dose concentrations ([8]; 1 mg kg^–1 IV, pre-dose ∼15 ng mL^–1): ≤ 24 h | C 0 [8, 10]: 4973 ± 557 ng mL^–1 and 4973.09 ng mL^–1 | Cl [8, 10]: 77 mL h^–1 kg^–1 and 77.24 mL h^–1 kg^–1 | K el [8, 10]: 0.20 h^–1 | MRT [8, 10]: 3.46 h | T 1/2 [8, 10]: 3.61 h | V ss [8, 10]: 265 mL kg^–1 and 265.41 mL kg^–1 | plasma lanthanum level as % of C0 ([8]; within 6 hours after 1 mg kg^–1 IV): approximately 10%
SMILES: Cc1c([O-])c(=O)ccn1C.Cc1c([O-])c(=O)ccn1C.Cc1c([O-])c(=O)ccn1C.[La+3] [La(dpp)3]
plasma concentration, t=end, single animals [4]: 4971.8 ng/g weight and 4668.4 ng/g weight and 4232.8 ng/g weight and 7201.5 ng/g weight and 6740.2 ng/g weight and 5287.1 ng/g weight | EC50 (MG-63 cells): > 100 µM | pM (= –log[La^3+]) [5]: 5.8 | log βML3 [5, 9]: 17.44
